From patent US9499538B2, “Estrogen receptor modulators and uses thereof” (Seragon Pharmaceuticals, Inc., priority 2012, dated 2016) come the findings set out here.

The subject of one test is MCF-7 cells. The test can be described thus: Breast Cancer Cell Viability Assays (MCF-7, CellTiter-Glo). The test is classed as cell-based. The note with it: 5 days' compound exposure; for IC50: Homo sapiens, MCF7, 120 h. The method, boiled down: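 Percent viability, background-subtracted against untreated wells, was taken from CellTiter-Glo luminescence after 5 days' exposure of MCF-7 cells. Compounds were tested at eleven semilog concentrations, final 0.3–0.000003 μM, in RPMI containing 10% FBS.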
In general terms: ATP-based viability assays read luminescence as a measure of living cells.

The target of another test is T1, ER-α in MCF-7 cells (Homo sapiens, UniProt P03372).
T1 construct: endogenous in cells; host or cells: MCF-7
T1 sequence (P03372 1-595): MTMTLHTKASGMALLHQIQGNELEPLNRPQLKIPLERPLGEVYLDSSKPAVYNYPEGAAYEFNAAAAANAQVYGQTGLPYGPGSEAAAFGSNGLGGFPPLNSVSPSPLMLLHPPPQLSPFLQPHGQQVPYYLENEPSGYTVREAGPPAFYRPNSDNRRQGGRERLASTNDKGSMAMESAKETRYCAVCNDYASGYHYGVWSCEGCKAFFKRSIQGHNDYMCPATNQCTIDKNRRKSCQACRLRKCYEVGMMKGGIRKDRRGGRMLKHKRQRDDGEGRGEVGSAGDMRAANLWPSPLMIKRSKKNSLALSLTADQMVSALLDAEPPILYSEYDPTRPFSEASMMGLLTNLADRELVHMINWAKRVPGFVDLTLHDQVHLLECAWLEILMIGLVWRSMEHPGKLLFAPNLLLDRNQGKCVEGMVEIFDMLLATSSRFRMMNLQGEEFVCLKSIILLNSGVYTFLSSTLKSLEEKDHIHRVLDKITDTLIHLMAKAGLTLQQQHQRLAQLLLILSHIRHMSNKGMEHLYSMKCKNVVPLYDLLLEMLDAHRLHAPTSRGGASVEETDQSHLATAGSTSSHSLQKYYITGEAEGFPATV
Nature of the test: Breast Cancer Cell ER-α In Cell Western Assay (SP1). The test is classed as cell-based. To be noted: 4 or 24 hr post compound addition; for Emax: MCF7, SP1 antibody, read-out: ER-α In Cell Western Assay (SP1) Max Response; for DC50: SP1 antibody, read-out: ER-α In Cell Western Assay (SP1) IC50. An outline of the steps:
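ER-α levels quantified by in-cell western: SP1 signal normalised to DRAQ5 DNA stain, relative to untreated cells (% ER). Compounds at 0.3–0.000003 μM final, 11-point semilog series, 4 or 24 h exposure of MCF-7 cells grown in charcoal-stripped serum.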

For the compound `O=C(O)/C=C/c1ccc(/C(=C(\c2ncccc2Cl)C2CCC2)c2cccc3[nH]nc(F)c23)cc1` [Example 246, (E)-3-(4-((E)-2-(3-Chloropyridin-2-yl)-2-cyclobutyl-1-(3-fluoro-1H-indazol-4-yl)vinyl)phenyl)acrylic acid], in the test on MCF-7 cells, the “MCF7 Viability Assay Max Response” value is reported as “++ (++ = a single % value ≧ 40%)” and the IC50 was no more than 100 nM. For the same compound, on ER-α in MCF-7 cells, the Emax was no less than 40% and the DC50 is no more than 100 nM.

For `N#Cc1cccnc1/C(=C(\c1ccc(/C=C/C(=O)O)cc1)c1ccc2[nH]nc(F)c2c1)C1CCC1` [Example 247, (E)-3-(4-((E)-2-(3-Cyanopyridin-2-yl)-2-cyclobutyl-1-(3-fluoro-1H-indazol-5-yl)vinyl)phenyl)acrylic acid], in the test on MCF-7 cells, the “MCF7 Viability Assay Max Response” value was “++ (++ = a single % value ≧ 40%)” and the IC50 is no more than 100 nM. Moreover, at ER-α in MCF-7 cells, the Emax was no less than 40% and the DC50 is no more than 100 nM.

Regarding `N#Cc1n[nH]c2ccc(/C(=C(/c3ccc(F)cc3Cl)C3CCC3)c3ccc(/C=C/C(=O)O)cc3)cc12` [Example 248, (E)-3-(4-((E)-2-(2-Chloro-4-fluorophenyl)-1-(3-cyano-1H-indazol-5-yl)-2-cyclobutylvinyl)phenyl)acrylic acid], in the test on MCF-7 cells, the “MCF7 Viability Assay Max Response” value is on record as “++ (++ = a single % value ≧ 40%)” and the IC50 was no more than 100 nM. Further, at ER-α in MCF-7 cells, the Emax is no less than 40% and the DC50 was no more than 100 nM.

As to `N#Cc1cc(Cl)cnc1/C(=C(\c1ccc(/C=C/C(=O)O)cc1)c1ccc2[nH]nc(F)c2c1)C1CCC1` [Example 249, (E)-3-(4-((E)-2-(5-Chloro-3 cyanopyridin-2-yl)-2-cyclobutyl-1-(3-fluoro-1H-indazol-5-yl)vinyl)phenyl)acrylic acid], in the test on MCF-7 cells, the “MCF7 Viability Assay Max Response” value is listed as “++ (++ = a single % value ≧ 40%)” and the IC50 is no more than 100 nM. At ER-α in MCF-7 cells, the Emax is no less than 40% and the DC50 was no more than 100 nM.

For the compound `O=C(O)/C=C/c1ccc(/C(=C(\c2ncc(C(F)(F)F)cc2Cl)C2CCC2)c2ccc3[nH]nc(F)c3c2)cc1` [Example 250, (E)-3-(4-((E)-2-(3-Chloro-5-(trifluoromethyl)pyridin-2-yl)-2-cyclobutyl-1-(3-fluoro-1H-indazol-5-yl)vinyl)phenyl)acrylic acid], in the test on MCF-7 cells, the “MCF7 Viability Assay Max Response” value is on record as “++ (++ = a single % value ≧ 40%)” and the IC50 was no more than 100 nM. Besides, at ER-α in MCF-7 cells, the Emax is no less than 40% and the DC50 was no more than 100 nM.

In the case of `O=C(O)/C=C/c1ccc(/C(=C(\c2ncc(F)cc2Cl)C2CCC2)c2ccc3[nH]nc(F)c3c2)cc1` [Example 251, (E)-3-(4-((E)-2-(3-Chloro-5-fluoropyridin-2-yl)-2-cyclobutyl-1-(3-fluoro-1H-indazol-5-yl)vinyl)phenyl)acrylic acid], in the test on MCF-7 cells, the “MCF7 Viability Assay Max Response” value is given as “++ (++ = a single % value ≧ 40%)” and the IC50 was no more than 100 nM. At ER-α in MCF-7 cells, the Emax was no less than 40% and the DC50 was no more than 100 nM.

`O=C(O)/C=C/c1ccc(/C(=C(\c2ccc(F)cc2Cl)C2CCC2)c2ccc3[nH]nc(C(F)(F)F)c3c2)cc1` [Example 252, (E)-3-(4-((E)-2-(2-Chloro-4-fluorophenyl)-2-cyclobutyl-1-(3-(trifluoromethyl)-1H-indazol-5-yl)vinyl)phenyl)acrylic acid]: in the test with MCF-7 cells, the “MCF7 Viability Assay Max Response” value was “++ (++ = a single % value ≧ 40%)” and the IC50 is greater than 100 nM. Besides, at ER-α in MCF-7 cells, the Emax was no less than 40% and the DC50 is no more than 100 nM.

Take `O=C(O)/C=C/c1ccc(/C(=C(\c2ncc(F)cc2Cl)C2CCC2)c2ccc3[nH]nc(F)c3c2)cc1F` [Example 253, (E)-3-(4-((Z)-2-(3-Chloro-5-fluoropyridin-2-yl)-2-cyclobutyl-1-(3-fluoro-1H-indazol-5-yl)vinyl)-2-fluorophenyl)acrylic acid]: in the test with MCF-7 cells, the “MCF7 Viability Assay Max Response” value is on record as “++ (++ = a single % value ≧ 40%)” and the IC50 is no more than 100 nM. On ER-α in MCF-7 cells, the Emax is no less than 40% and the DC50 is no more than 100 nM.

In the case of `O=C(O)/C=C/c1ccc(/C(=C(\c2ncc(Cl)cc2Cl)C2CCC2)c2ccc3[nH]nc(F)c3c2)cc1F` [Example 254, (E)-3-(4-((Z)-2-Cyclobutyl-2-(3,5-dichloropyridin-2-yl)-1-(3-fluoro-1H-indazol-5-yl)vinyl)-2-fluorophenyl)acrylic acid], in the test on MCF-7 cells, the “MCF7 Viability Assay Max Response” value is on record as “++ (++ = a single % value ≧ 40%)” and the IC50 was no more than 100 nM. Moreover, at ER-α in MCF-7 cells, the Emax is no less than 40% and the DC50 was no more than 100 nM.

For the compound `CCOC(=O)/C=C/c1ccc(/C(=C(\c2ncc(Cl)cc2Cl)C2CCC2)c2ccc3[nH]nc(F)c3c2)cc1F` [Example 255, (E)-Ethyl 3-(4-((Z)-2-cyclobutyl-2-(3,5-dichloropyridin-2-yl)-1-(3-fluoro-1H-indazol-5-yl)vinyl)-2-fluorophenyl)acrylate], in the test on MCF-7 cells, the “MCF7 Viability Assay Max Response” value was “+ (+ = a single % value < 40%)” and the IC50 is no more than 100 nM. For the same compound, on ER-α in MCF-7 cells, the Emax was no less than 40% and the DC50 was no more than 100 nM.

In the case of `COc1ccc(/C(=C(\c2ccc(/C=C/C(=O)O)c(F)c2)c2ccc3[nH]nc(F)c3c2)C2CCC2)c(Cl)c1` [Example 256, (E)-3-(4-((Z)-2-(2-Chloro-4-methoxyphenyl)-2-cyclobutyl-1-(3-fluoro-1H-indazol-5-yl)vinyl)-2-fluorophenyl)acrylic acid], in the test on MCF-7 cells, the “MCF7 Viability Assay Max Response” value is given as “++ (++ = a single % value ≧ 40%)” and the IC50 is no more than 100 nM. Also, on ER-α in MCF-7 cells, the Emax is no less than 40% and the DC50 was no more than 100 nM.

`O=C(O)/C=C/c1ccc(/C(=C(\c2ncc(Cl)cc2C(F)(F)F)C2CCC2)c2ccc3[nH]nc(F)c3c2)cc1` [Example 257, (E)-3-(4-((E)-2-(5-Chloro-3-(trifluoromethyl)pyridin-2-yl)-2-cyclobutyl-1-(3-fluoro-1H-indazol-5-yl)vinyl)phenyl)acrylic acid]: in the test on MCF-7 cells, the “MCF7 Viability Assay Max Response” value was “++ (++ = a single % value ≧ 40%)” and the IC50 was no more than 100 nM. Also, at ER-α in MCF-7 cells, the Emax is no less than 40% and the DC50 was no more than 100 nM.

`O=C(O)/C=C/c1ccc(/C(=C(\c2cnc(C(F)(F)F)cc2C(F)(F)F)C2CCC2)c2ccc3[nH]nc(F)c3c2)cc1` [Example 258, (E)-3-(4-((E)-2-(4,6-bis(Trifluoromethyl)pyridin-3-yl)-2-cyclobutyl-1-(3-fluoro-1H-indazol-5-yl)vinyl)phenyl)acrylic acid]: in the test with MCF-7 cells, the “MCF7 Viability Assay Max Response” value is “++ (++ = a single % value ≧ 40%)” and the IC50 is no more than 100 nM. Moreover, at ER-α in MCF-7 cells, the Emax is no less than 40% and the DC50 was no more than 100 nM.

As for `O=C(O)/C=C/c1ccc(/C(=C(\c2ncccc2Cl)C2CCC2)c2ccc3[nH]nc(F)c3c2)cn1` [Example 259, (E)-3-(5-((Z)-2-(3-Chloropyridin-2-yl)-2-cyclobutyl-1-(3-fluoro-1H-indazol-5-yl)vinyl)pyridin-2-yl)acrylic acid], in the test with MCF-7 cells, the “MCF7 Viability Assay Max Response” value is “++ (++ = a single % value ≧ 40%)” and the IC50 is no more than 100 nM. On ER-α in MCF-7 cells, the Emax was no less than 40% and the DC50 is no more than 100 nM.

As to `O=C(O)/C=C/c1ccc(/C(=C(\c2ncccc2C(F)(F)F)C2CCC2)c2ccc3[nH]nc(F)c3c2)cn1` [Example 260, (E)-3-(5-((Z)-2-Cyclobutyl-1-(3-fluoro-1H-indazol-5-yl)-2-(3-(trifluoromethyl)pyridin-2-yl)vinyl)pyridin-2-yl)acrylic acid], in the test on MCF-7 cells, the “MCF7 Viability Assay Max Response” value was “++ (++ = a single % value ≧ 40%)” and the IC50 was no more than 100 nM. For the same compound, on ER-α in MCF-7 cells, the Emax is no less than 40% and the DC50 is no more than 100 nM.

For `CC/C(=C(/c1ccc(/C=C/C(=O)O)cc1)c1ccc2[nH]nc(F)c2c1)c1ccccc1Cl` [Example 261, (E)-3-(4-((E)-2-(2-Chlorophenyl)-1-(3-fluoro-1H-indazol-5-yl)but-1-en-1-yl)phenyl)acrylic acid], in the test with MCF-7 cells, the “MCF7 Viability Assay Max Response” value is reported as “++ (++ = a single % value ≧ 40%)” and the half-inhibitory concentration (IC50) was no more than 100 nM. Besides, on ER-α in MCF-7 cells, the Emax was no less than 40% and the DC50 is no more than 100 nM.

For the compound `CC/C(=C(/c1ccc(/C=C/C(=O)O)cc1)c1ccc2[nH]nc(F)c2c1)c1ncccc1Cl` [Example 262, (E)-3-(4-((E)-2-(3-Chloropyridin-2-yl)-1-(3-fluoro-1H-indazol-5-yl)but-1-en-1-yl)phenyl)acrylic acid], in the test with MCF-7 cells, the “MCF7 Viability Assay Max Response” value was “++ (++ = a single % value ≧ 40%)” and the half-maximal inhibitory concentration (IC50) is no more than 100 nM. In addition, on ER-α in MCF-7 cells, the Emax is no less than 40% and the DC50 was no more than 100 nM.

The term IC50 denotes the midpoint of a concentration-inhibition curve.
